Reference: patent US5596002A, “Method of treating chloroquine-resistant malaria with aminoquinoline derivatives” (Hoffmann-La Roche Inc., priority 1993, dated 1997)
Converted amounts (≈) assume the structure as drawn.

Legend:
Assay type in all cases: cell-based
[1] = system: Plasmodium falciparum, chloroquine-sensitive strain NF54; assay: activity against P. falciparum in vitro, strain NF54; conditions: Plasmodium falciparum; chloroquine-sensitive strain NF54; 48 h-72 h; read-out: IC50 (50% growth inhibition)
Description: (§1) Test method for the determination of the activity against P. falciparum in vitro
(§2) The preparations of the present invention were tested on intraerythrocytary stages of P. falciparum from asynchronous cultures according to the method of Desjardin et al. (Desjardins, R. E. et al: Quantitative assessment of antimalarial activity in vitro by a semiautomated microdilution technique. Antimicrob. Agents Chemother. 16, 710-718, (1979)).
(§3) The culture medium consisted of RPMI 1640 with the addition of 25 mM HEPES, 25 mM NaHCO3, […] neomycin and 10% human serum (A^+). Human-A^+ erythrocytes were used as the P. falciparum host cells. The parasites were maintained at 37° C. in an atmosphere of 3% O2, 4% CO2, 93% N2 and at 95% relative humidity.
(§4) In order to determine the activity, the preparations were dissolved in DMSO, pre-diluted in the culture medium to a suitable starting concentration and subsequently titrated-out into microtitre plates in the 2nd stage over 6-7 steps. After the addition of the parasite culture (0.7% parasitemia in 2.5% erythrocyte suspension), the test plates were incubated under the conditions given above for 48 h-72 h. The parasite growth in the different preparation concentrations was determined using [G-^3 H]-hypoxanthin incorporation compared to untreated control cultures on the same test plates. The 50% growth inhibition (IC50) was calculated according to logit regression analysis from the resulting dosage-activity curve.
(§5) The preparations were tested on at least one chloroquine-resistant and one chloroquine-sensitive P. falciparum strain. Additional sensitive and resistant strains were also included for further characterization.
(§6) Table 1 below contains the IC50 values measured in vitro for the growth inhibition of chloroquine-sensitive and chloroquine-resistant strains of the human pathogenic Plasmodium falciparum.

[2] = system: Plasmodium falciparum, chloroquine-sensitive strain FCH5C2; assay: activity against P. falciparum in vitro, strain FCH5C2; conditions: chloroquine-sensitive strain FCH5C2, 48 h-72 h, read-out: IC50 (50% growth inhibition)
Description: as §1, §2, §3, §4, §5, §6

[3] = system: Plasmodium falciparum, chloroquine-sensitive strain HB3; assay: activity against P. falciparum in vitro, strain HB3; conditions: chloroquine-sensitive strain HB3, 48 h-72 h, read-out: IC50 (50% growth inhibition)
Description: as §1, §2, §3, §4, §5, §6

[4] = system: Plasmodium falciparum, chloroquine-sensitive strain RFMEF3; assay: activity against P. falciparum in vitro, strain RFMEF3; conditions: chloroquine-sensitive strain RFMEF3, 48 h-72 h, read-out: IC50 (50% growth inhibition)
Description: as §1, §2, §3, §4, §5, §6

[5] = system: Plasmodium falciparum, chloroquine-sensitive strain Ro7 3; assay: activity against P. falciparum in vitro, strain Ro7 3; conditions: chloroquine-sensitive strain Ro7 3, 48 h-72 h, read-out: IC50 (50% growth inhibition)
Description: as §1, §2, §3, §4, §5, §6

[6] = system: Plasmodium falciparum, chloroquine-resistant strain RFCR3; assay: activity against P. falciparum in vitro, strain RFCR3; conditions: chloroquine-resistant strain RFCR3, 48 h-72 h, read-out: IC50 (50% growth inhibition)
Description: as §1, §2, §3, §4, §5, §6

[7] = system: Plasmodium falciparum, chloroquine-resistant strain ItG2 F6; assay: activity against P. falciparum in vitro, strain ItG2 F6; conditions: chloroquine-resistant strain ItG2 F6, 48 h-72 h, read-out: IC50 (50% growth inhibition)
Description: as §1, §2, §3, §4, §5, §6

[8] = system: Plasmodium falciparum, chloroquine-resistant strain Indo; assay: activity against P. falciparum in vitro, strain Indo; conditions: chloroquine-resistant strain Indo, 48 h-72 h, read-out: IC50 (50% growth inhibition)
Description: as §1, §2, §3, §4, §5, §6

[9] = system: Plasmodium falciparum, chloroquine-resistant strain K1; assay: activity against P. falciparum in vitro, strain K1; conditions: Plasmodium falciparum; chloroquine-resistant strain K1; 48 h-72 h; read-out: IC50 (50% growth inhibition)
Description: as §1, §2, §3, §4, §5, §6

[10] = system: Plasmodium falciparum, chloroquine-resistant strain W2; assay: activity against P. falciparum in vitro, strain W2; conditions: chloroquine-resistant strain W2, 48 h-72 h, read-out: IC50 (50% growth inhibition)
Description: as §1, §2, §3, §4, §5, §6

[11] = system: Plasmodium falciparum, chloroquine-resistant strain 7G8; assay: activity against P. falciparum in vitro, strain 7G8; conditions: chloroquine-resistant strain 7G8, 48 h-72 h, read-out: IC50 (50% growth inhibition)
Description: as §1, §2, §3, §4, §5, §6

[12] = system: Plasmodium falciparum, chloroquine-resistant strain W2 Mef; assay: activity against P. falciparum in vitro, strain W2 Mef; conditions: 48 h-72 h, read-out: IC50 (50% growth inhibition)
Description: as §1, §2, §3, §4, §5, §6

SMILES | IC50 [1] [ng/mL] | IC50 [2] [ng/mL] | IC50 [3] [ng/mL] | IC50 [4] [ng/mL] | IC50 [5] [ng/mL] | IC50 [6] [ng/mL] | IC50 [7] [ng/mL] | IC50 [8] [ng/mL] | IC50 [9] [ng/mL] | IC50 [10] [ng/mL] | IC50 [11] [ng/mL] | IC50 [12] [ng/mL]
CC(C)(CN1CCCCC1)Nc1ccnc2cc(Cl)ccc12 [Example 14, (7-Chloro-quinolin-4-yl)-(1,1-dimethyl-2-piperidin-1-yl-ethyl)-amine] | 9 (≈ 0.0283 µM) | 8 (≈ 0.0252 µM) | 9 (≈ 0.0283 µM) | 6 (≈ 0.0189 µM) | 4 (≈ 0.0126 µM) | 8 (≈ 0.0252 µM) | 6 (≈ 0.0189 µM) | 10 (≈ 0.0315 µM) | 21 (≈ 0.0661 µM) | 20 (≈ 0.0629 µM) | 7 (≈ 0.022 µM) | 14 (≈ 0.044 µM)
CN(C)CCNc1ccnc2cc(C(F)(F)F)ccc12 [Example 22, N1,N1 -Dimethyl-N2-(7trifluoromethyl-quinolin-4-yl)-ethane-1,2-diamine] | 14 (≈ 0.0494 µM) | 17 (≈ 0.06 µM) | 20 (≈ 0.0706 µM) | 18 (≈ 0.0635 µM) | 11 (≈ 0.0388 µM) | 20 (≈ 0.0706 µM) | 14 (≈ 0.0494 µM) | 16 (≈ 0.0565 µM) | 22 (≈ 0.0777 µM) | 11 (≈ 0.0388 µM) | 29 (≈ 0.102 µM) | 23 (≈ 0.0812 µM)
CC1CCN(CCNc2ccnc3cc(Cl)ccc23)CC1 [Example 24, (7-Chloro-quinolin-4-yl)-[2-(4-methyl-piperidin-1-yl)-ethyl]-amine] | 7 (≈ 0.023 µM) | 7 (≈ 0.023 µM) | 7 (≈ 0.023 µM) | 7 (≈ 0.023 µM) | 4 (≈ 0.0132 µM) | 9 (≈ 0.0296 µM) | 6 (≈ 0.0197 µM) | 8 (≈ 0.0263 µM) | 15 (≈ 0.0494 µM) | 15 (≈ 0.0494 µM) | 7 (≈ 0.023 µM) | 9 (≈ 0.0296 µM)
CC1(C)CCCN(CCNc2ccnc3cc(Cl)ccc23)C1 [Example 25, (7-Chloro-quinolin-4-yl)-[2-(3,3-dimethyl-piperidin-1-yl)-ethyl]-amine] | 8 (≈ 0.0252 µM) | 8 (≈ 0.0252 µM) | 10 (≈ 0.0315 µM) | 8 (≈ 0.0252 µM) | 5 (≈ 0.0157 µM) | 14 (≈ 0.044 µM) | 8 (≈ 0.0252 µM) | 15 (≈ 0.0472 µM) | 22 (≈ 0.0692 µM) | 26 (≈ 0.0818 µM) | 11 (≈ 0.0346 µM) | 16 (≈ 0.0503 µM)
C[C@@H]1CCC[C@H](C)N1CCNc1ccnc2cc(Cl)ccc12 [Example 28, (2R,6S)-(7-Chloro-quinolin-4-yl)-[2-(2,6-dimethyl-piperidin-1-yl)-ethyl]-amine] | 7 (≈ 0.022 µM) | 14 (≈ 0.044 µM) | 11 (≈ 0.0346 µM) | 9 (≈ 0.0283 µM) | 5 (≈ 0.0157 µM) | 16 (≈ 0.0503 µM) | 6 (≈ 0.0189 µM) | 9 (≈ 0.0283 µM) | 16 (≈ 0.0503 µM) | 18 (≈ 0.0566 µM) | 9 (≈ 0.0283 µM) | 15 (≈ 0.0472 µM)
CC1CC(C)CN(CCNc2ccnc3cc(Cl)ccc23)C1 (stereo not drawn) [Example 29, (7-Chloro-quinolin-4-yl)-[2-(3,5-dimethyl-piperidin-1-yl)-ethyl]-amine] | 6 (≈ 0.0189 µM) | 6 (≈ 0.0189 µM) | 7 (≈ 0.022 µM) | 5 (≈ 0.0157 µM) | 3 (≈ 0.00944 µM) | 11 (≈ 0.0346 µM) | 6 (≈ 0.0189 µM) | 7 (≈ 0.022 µM) | 16 (≈ 0.0503 µM) | 15 (≈ 0.0472 µM) | 5 (≈ 0.0157 µM) | 11 (≈ 0.0346 µM)
CC1CCC(C)N1CCNc1ccnc2cc(Cl)ccc12 (stereo not drawn) [Example 30, (7-Chloro-quinolin-4-yl)-[2-(2,5-dimethyl-pyrrolidin-1-yl)-ethyl]-amine] | 7 (≈ 0.023 µM) | 9 (≈ 0.0296 µM) | 10 (≈ 0.0329 µM) | 8 (≈ 0.0263 µM) | 11 (≈ 0.0362 µM) | 16 (≈ 0.0527 µM) | 7 (≈ 0.023 µM) | 7 (≈ 0.023 µM) | 14 (≈ 0.0461 µM) | 15 (≈ 0.0494 µM) | 15 (≈ 0.0494 µM) | 8 (≈ 0.0263 µM)
Clc1ccc2c(NCCN3CCC4CCCCC43)ccnc2c1 (stereo not drawn) [Example 31] | 5 (≈ 0.0152 µM) | 5 (≈ 0.0152 µM) | 5 (≈ 0.0152 µM) | 6 (≈ 0.0182 µM) | 5 (≈ 0.0152 µM) | 14 (≈ 0.0424 µM) | 7 (≈ 0.0212 µM) | 7 (≈ 0.0212 µM) | 11 (≈ 0.0333 µM) | 14 (≈ 0.0424 µM) | 9 (≈ 0.0273 µM) | 7 (≈ 0.0212 µM)
